{"source": "patent US20240358719A1", "about": "“Formulations for Prolonging Gestation and for Complications of Menstruation or Gestation” (The Board of Trustees of the Leland Stanford Junior …, priority 2021, published 2024)", "key": {"[1]": {"system": "pregnant C57BL/6 mice", "assay": "mouse model of moderate preterm birth (LPS 2 mg/kg)", "format": "in vivo", "settings": "LPS 2 mg/kg D15; for gestation after LPS: intraperitoneal every 8 hours, DHEA-S, THDOC 0.8 then 0.4 mg/mouse, androstane-3,17-diol 1.5 mg/mouse, combinations 0.75 mg/mouse each", "procedure": "Provided in FIGS. 6A and 6B are an experimental schematic and results of compound treatment in mouse models of moderate preterm birth. Pregnant C57BL/6 mice were intraperitoneally administered 2 mg/kg LPS (Escherichia coli 0127:B8, chromatographically pure, Sigma-Aldrich) or PBS (as control) on D15. Mice were then treated with either intraperitoneal injections of vehicle (100 μl, 30% DMSO in pharmaceutical sesame oil), DHEA-S (first two doses at 0.8 mg/mouse, later doses at 0.4 mg/mouse, 100 μl), THDOC (first two doses at 0.8 mg/mouse, later doses at 0.4 mg/mouse, 100 μl), estriol-16-glucuronide (first two doses at 0.8 mg/mouse, later doses at 0.4 mg/mouse, 100 μl), androstane-3,17-diol (1.5 mg/mouse, 100 μl), Androstane-3,17-diol+progesterone (each at 0.75 mg/mouse, 100 μl), or DHEA-S+androstane-3,17-diol+progesterone (androstane-3,17-diol and progesterone each at 0.75 mg/mouse, DHEA-S at 0.27 mg/mouse for the first two doses and then 0.13 mg/mouse for the later does, 100 μl). Compound groups received the compounds via intraperitoneal injections every 8 hours, beginning 8 hours after LPS administration, up to 4 doses, and then after 12 hours before delivery."}, "[2]": {"system": "uterine muscle strips from pregnant WT mice", "assay": "myography of mouse uterine muscle strips, spontaneous contraction", "procedure": "(§1) Uterine muscle strips were extracted from pregnant mice and were assessed for contractibility via myography. Timed-pregnant wild-type C57/B6 mice were euthanized before making a vertical midline abdominal incision and removing each of the two uterine horns. Uterine horns were subsequently cut into 3-mm×7-mm segments and placed in a modified Krebs buffer (118 mM NaCl, […], 1.2 mM MgSO4, 1.2 mM KH2PO4, 2.5 mM CaCl2), 25 mM NaHCO3, and 11 mM glucose, pH 7.4). Muscle segments were vertically suspended on custom-made stainless steel hooks inside an organ bath filled with modified Krebs buffer, maintained at 37° C., and aerated with gas containing 95% O2 and 5% CO2. The strips were allowed to equilibrate at 1.5 g of tension for 45 min.\nProvided in FIG. 5A are results of a myography experiment measuring spontaneous contraction. Myography of uterine muscle strips from pregnant WT mice at D18 was performed while incubating the strips with oxytocin (OXY), Vehicle, 0.25 μM μM of DHEA-S, 1 μM of THDOC, 1 μM of estriol-16-glucuronide, or 1 μM of androstane-3,17-diol. The area under the curve was calculated for the final 180 s of each 9-min contraction tracing using GraphPad Prism (GraphPad Prism for Macintosh version 5.0; GraphPad Software). The area under the curve for each response was then normalized to the area under the curve of the baseline.\nProvided in FIG. 5E are myography tracings recorded with various compound applications: 10 μM progesterone, 1 μM Androstane-3,17-diol, 0.5 μM Androstane-3,17-diol+5 μM progesterone, and 0.33 μM Androstane-3,17-diol+0.33 μM THDOC+3.3 μM progesterone. Left of the arrow is baseline contraction and to the right of the arrow indicates when the compounds were applied. […] Note that there was no obvious effect when treating the muscle with 1 μM progesterone (data not shown)."}, "[3]": {"system": "pregnant C57BL/6 mice", "assay": "mouse model of severe preterm birth (LPS 3 mg/kg)", "format": "in vivo", "procedure": "Provided in FIG. 7 is an experimental schematic of compound treatment in mouse models of severe preterm birth. In separate experiments, pregnant C57BL/6 mice were intraperitoneally administered 3 mg/kg LPS (Escherichia coli 0127: B8, chromatographically pure, Sigma-Aldrich) or PBS (as control) on D15. Treated mice were then treated with either intraperitoneal injections of vehicle (200 μl) or androstane-3,17-diol (1.5 mg/mouse, 200 μl) every 12 hours, up to 5 doses before delivery.\n(§2) Provided in FIGS. 8A and 8B are an experimental schematic and results of tocolytic compound treatment in mouse models of severe preterm birth. In separate experiments, pregnant C57BL/6 mice were intraperitoneally administered 3 mg/kg LPS (Escherichia coli 0127: B8, chromatographically pure, Sigma-Aldrich) or PBS (as control) on D15. Treated mice were then treated with either intraperitoneal injections of vehicle or androstane-3,17-diol (1.5 mg/mouse). The androstane-3,17-diol group received androstane-3,17-diol via intraperitoneal injections every 24 hours, up to 3 days before delivery. One-third (33%) of LPS-induced preterm mice treated with androstane-3,17-diol reached full term."}, "[4]": {"system": "pregnant C57BL/6 mice", "assay": "gestation period in healthy control mice (no LPS)", "format": "in vivo", "settings": "1.5 mg/mouse intraperitoneal every 24 hours", "procedure": "as §2"}, "[5]": {"system": "human uterine smooth muscle cells", "assay": "collagen gel contraction assay with human uterine smooth muscle cells", "format": "cell-based", "settings": "compound at 10 μM; oxytocin 100 nM, 18 hours", "procedure": "The abilities of various hormonal steroids to inhibit human uterine smooth muscle cell contraction were assessed utilizing a collagen gel contraction assay. Collagen (150 μl) was aliquoted per well of a 48-well plate. After 1 hour of polymerization, 80,000 human uterine smooth muscle cells (SMCs), were added to each well in 300 μl of SmBM smooth muscle basic medium (Lonza) with vehicle (DMSO) or compounds (2.5 µM of DHEA-S, 10 µM of THDOC, 10 µM of estriol-16-glucuronide, 10 µM of androstane-3,17-diol, or 2 mM of progesterone). Collagen gels were exposed to oxytocin (100 nM) to stimulate uterine SMC contraction or PBS as control. After incubating for 1 hour at 37° C. and 5% CO2, the sides of the collagen gels were detached from the wells with sterile 200-μl pipette tips. After 18 hours, cells in collagen-coated wells were fixed with 4% paraformaldehyde solution for 30 min, then rinsed, and stored in PBS. Experiments were done multiple times (n=7), with duplicates for each condition. Surface area of each gel circle was measured using ImageJ. The areas were then expressed as a percentage relative to the area of no cell (collagen alone) control (set at 100%).\nEach of the compounds assessed provided some ability to mitigate collagen retraction. […]"}, "[6]": {"system": "uterine muscle strips from pregnant WT mice stimulated with oxytocin", "assay": "myography of mouse uterine muscle strips, oxytocin dose response", "settings": "D18 strips", "procedure": "as §1\nFor the oxytocin dose-response experiments, the strips were then stimulated with oxytocin at concentrations ranging from 1 to 1000 nM, and the pattern of contraction in response to each dose was recorded for 9 min. The muscle strips were washed with Krebs solution twice and allowed to equilibrate for 3 min before the next stimulation. In separate experiments, strips were treated with the compounds before assessing the dose response to oxytocin. Contraction tracings were recorded using PowerLab and LabChart (ADInstruments).\nProvided in FIGS. 5B and 5C are results of a myography experiment measuring spontaneous contractions induced by oxytocin. […]"}, "[7]": {"system": "pregnant CD1 mice", "assay": "mouse model of preterm birth (CD1, LPS 1 mg/kg)", "format": "in vivo", "settings": "LPS 1 mg/kg D15, subcutaneous; for pups birthed from treated preterm model females: 4 doses; for gestation after LPS: 4 doses at 30 mg/kg (5α-DHT 3 mg/kg)", "procedure": "Provided in FIGS. 9 and 9B are an experimental schematic and results of compound treatment in mouse models of preterm birth. Pregnant CD1 mice were intraperitoneally administered 1 mg/kg LPS (Escherichia coli 0127: B8, chromatographically pure, Sigma-Aldrich) or PBS (as control) on D15. Mice were then treated with either subcutaneous injections of vehicle (DMSO in pharmaceutical sesame oil), pregnenolone (Preg) (4 doses at 30 mg/kg), pregnenolone sulfate (PregS) (4 doses at 30 mg/kg), 7-methylguanine (4 doses at 30 mg/kg), or 5α-dihydrotestosterone (5α-DHT) (4 doses at 3 mg/kg). Compound groups received the compounds beginning 6 hours after LPS administration, then 6, 12, and 12 hours apart."}}, "note": "Entries after “also recorded” stand apart in the source; their conditions may differ. Where a name gives a salt, the structure may show the parent alone.", "data": [{"smiles": "C[C@]12CC[C@H](OS(=O)(=O)O)CC1=CC[C@@H]1[C@@H]2CC[C@]2(C)C(=O)CC[C@@H]12", "note": "[DHEA-S, dehydroisoandrosterone sulfate]", "values": [{"measurement": "pups birthed from treated preterm model females", "setting": "[1]; intraperitoneal", "result": "Full-term live pups"}, {"measurement": "gestation after LPS", "setting": "[1]", "result": "prolonged gestation in vivo"}]}, {"smiles": "C[C@]12CC[C@@H](O)C[C@@H]1CC[C@@H]1[C@@H]2CC[C@]2(C)[C@@H](O)CC[C@@H]12", "note": "(stereo in doubt) [androstane-3,17-diol]", "values": [{"measurement": "muscle contractility, myography tracing", "setting": "[2]; 1 μM", "result": "rapid inhibition of the muscle contraction"}, {"measurement": "suppression of uterine contractility (area under the curve normalized to baseline)", "setting": "[2]; D18 strips, 0.25 μM DHEA-S, 1 μM THDOC, estriol-16-glucuronide or androstane-3,17-diol", "result": "most significant inhibition effect"}, {"measurement": "pups birthed from treated preterm model females", "setting": "[1]; intraperitoneal", "result": "Full-term live pups"}, {"measurement": "rank of gestation result among treatments", "setting": "[1]; intraperitoneal", "result": "most significant results"}, {"measurement": "gestation after LPS", "setting": "[1]", "result": "prolonged gestation in vivo"}, {"measurement": "condition of mom and pups at full-term", "setting": "[3]; 1.5 mg/mouse intraperitoneal every 12 hours", "result": "looked healthy"}, {"measurement": "fraction of mice that reached full-term", "setting": "[3]; 1.5 mg/mouse intraperitoneal every 12 hours, up to 5 doses", "result": "⅓"}, {"measurement": "LPS-induced preterm mice that reached full term", "setting": "[3]; 1.5 mg/mouse intraperitoneal every 24 hours, up to 3 days", "result": 33, "unit": "%"}, {"measurement": "gestation period of healthy control mice", "setting": "[4]", "result": "increased gestation period beyond the typical date of delivery"}, {"measurement": "ability to mitigate collagen retraction", "setting": "[5]", "result": "best results"}, {"measurement": "uterine contractility with oxytocin stimulation (AUC, amplitude)", "setting": "[6]; 1 μM compound, increasing doses of oxytocin", "result": "reduced; also recorded: inhibits uterine muscle contraction"}]}, {"smiles": "CC(=O)[C@H]1CC[C@H]2[C@@H]3CC=C4C[C@@H](OS(=O)(=O)O)CC[C@]4(C)[C@H]3CC[C@]12C", "note": "[pregnenolone sulfate]", "values": [{"measurement": "pups birthed from treated preterm model females", "setting": "[7]", "result": "Full-term live pups"}, {"measurement": "rank of gestation result among treatments", "setting": "[7]; 4 doses at 30 mg/kg", "result": "most significant results, matching the untreated control"}, {"measurement": "gestation after LPS", "setting": "[7]", "result": "prolonged gestation in vivo"}]}, {"smiles": "CC[C@H](C)[C@@H]1NC(=O)[C@H](Cc2ccc(O)cc2)NC(=O)[C@@H](N)CSSC[C@@H](C(=O)N2CCC[C@H]2C(=O)N[C@@H](CC(C)C)C(=O)NCC(N)=O)NC(=O)[C@H](CC(N)=O)NC(=O)[C@H](CCC(N)=O)NC1=O", "note": "[Oxytocin, oxytocin, reference compound]", "values": [{"measurement": "effect of oxytocin on uterine contractility", "setting": "[6]; 1 to 1000 nM oxytocin", "result": "dose-dependent increase in uterine contractility"}]}, {"smiles": "CC(=O)[C@H]1CC[C@H]2[C@@H]3CCC4=CC(=O)CC[C@]4(C)[C@H]3CC[C@]12C", "note": "[progesterone, reference compound]", "values": [{"measurement": "muscle contractility, myography tracing", "setting": "[2]; 1 μM", "result": "no effects"}, {"measurement": "muscle contractility, myography tracing", "setting": "[2]; 10 μM", "result": "first enhanced and then gradually suppressed in peak height"}, {"measurement": "ability to mitigate collagen retraction", "setting": "[5]", "result": "no effect"}]}, {"smiles": "Cn1cnc2nc(N)[nH]c(=O)c21", "note": "[7-methylguanine]", "values": [{"measurement": "pups birthed from treated preterm model females", "setting": "[7]", "result": "Full-term live pups"}, {"measurement": "gestation after LPS", "setting": "[7]", "result": "prolonged gestation in vivo"}]}, {"smiles": "CC(=O)[C@H]1CC[C@H]2[C@@H]3CC=C4C[C@@H](O)CC[C@]4(C)[C@H]3CC[C@]12C", "note": "[pregnenolone]", "values": [{"measurement": "gestation after LPS", "setting": "[7]", "result": "prolonged gestation in vivo"}]}, {"smiles": "C[C@]12CCC(=O)C[C@@H]1CC[C@@H]1[C@@H]2CC[C@]2(C)[C@@H](O)CC[C@@H]12", "note": "[5α-DHT, 5α-dihydrotestosterone]", "values": [{"measurement": "pups birthed from treated preterm model females", "setting": "[7]", "result": "Full-term live pups"}, {"measurement": "gestation after LPS", "setting": "[7]", "result": "prolonged gestation in vivo"}]}, {"smiles": "C[C@]12CC[C@@H](O)C[C@H]1CC[C@@H]1[C@@H]2CC[C@]2(C)[C@@H](C(=O)CO)CC[C@@H]12", "note": "[THDOC, tetrahydrodeoxycorticosterone]", "values": [{"measurement": "gestation after LPS", "setting": "[1]", "result": "prolonged gestation in vivo"}]}]}
